Measurements taken from patent publication US7138147B2, “Arsenic sulfide compounds and derivatives thereof for the treatment of malignancies” (priority 1998, dated 2006).

Experiments:
NB4 cells = conditions: in vitro, APL cell line; cited from earlier work
refractory APL = conditions: intravenous 10 mg/day for 4–9 weeks; cited from earlier work
[1] = tested on: acute promyelocytic leukemia (APL); assay: Clinical treatment of APL patients with arsenic disulfide; assay type: in vivo, human
Text: (§1) Newly diagnosed, or relapsing patients are given a different protocol of treatment than are those patients who are in current remission. […] Preferably the dose given will range from approximately 0.5 to approximately 0.75 gram of arsenic disulfide. This equates to 2 to 3 capsules, according to the above formulation, by mouth for one dose. After the initial three days, the patient is given the compound three times daily until remission is induced. To prevent complications due to the potential build up of arsenic in the body, treatment should not exceed 100 days. In most cases, favorable response should be induced before forty days of treatment. These later doses may be somewhat reduced in amount compared to the original three day dosages. […] At this point, the patient should be reevaluated through testing, and allowed to rest before beginning another course of treatment according to the present protocol.
(§2) The patient then abstains from treatment for a set period of time. During this time, the patient is tested. Treatment is adjusted according to test results with the period of abstention lasting from two weeks to 100 days, depending upon results. The length of the maintenance procedure varies according to patients' conditions, and may last as long as 3 years (including treating and resting periods). Each dose during this phase of treatment preferably contains arsenic disulfide in the range of approximately 0.50 to 0.75 gram. Once again the preferred method of administration is orally through use of a capsule as described above. Usually, a maintenance treatment is divided into two stages.
All patients who make up a part of the case studies have been diagnosed with APL on the basis of cell morphology of AML-M3, that is acute hypergranular promyelocytic leukemia, immunological cell markers, chromosomal analysis showing (15;17) translocation, and positive PML/RARα mRNA expression. Some patients were referred to the study with a diagnosis based solely on pathologic changes in cell morphology; these patients' diagnoses were tracked and reconfirmed throughout the study. Chronic myeloid leukemia and lymphoma patients have also benefitted from arsenic disulfide treatment, as illustrated by case studies 3 and 4.
Fifty-one patients met the inclusion criteria for the study.
(§3) Exclusion criteria for the study included history of hypersensitivity to arsenic compounds, previous treatment with arsenic-containing medications, patient in critical condition, excessively low or high white blood counts, existing heart, liver or kidney conditions, and severe infection. Three patients were excluded on these grounds, leaving 48 patients in the study. All 48 cases were treated with arsenic disulfide according to the above protocol. ATRA or other cytotoxic agents were not used. All 48 patients are living and Leukemia free as of April, 1998.

[2] = Solubility of As4S4 in solvents; assay type: physicochemical; conditions: polyvinylpyrrolidone, pyrrolidone, alcohol, ether, di-sodium hydrophosphate, mercaptopurine, sodium bicarbonate; various concentrations
Procedure: In other experiments, a number of solvents, such as polyvinylpyrrolidone, pyrrolidone, alcohol, ether, di-sodium hydrophosphate, mercaptopurine and sodium bicarbonate, were tested to increase solubility of As4S4. […] Accordingly, As4S4 solubilized in the above solvents is useful for intravenous administration.

[3] = EPA/600/8-91/061; cited from earlier work
[4] = tested on: chronic myeloid leukemia (CML); assay: Case study 3: chronic myeloid leukemia patient; assay type: in vivo, human; conditions: case study 3, 0.6 gram twice daily
Procedure: A person was diagnosed as having chronic myeloid leukemia (CML) in February, 1959. […] Initially, they were treated with Myleran. On Jan. 20, 1960, the white blood cell count was […] showing a differential count of 11% promyelocyte and myelocyte. […] Patient was given 0.6 gram of arsenic disulfide twice daily. While being treated, blood and bone marrow pictures were controlled. The patient died, on Sep. 5, 1965 from infection unrelated to the arsenic sulfide treatment.

[5] = Side effects of arsenic disulfide treatment in patients; assay type: in vivo, human
Text: as §1, §2, §3
Side effects of treatment with arsenic disulfide are minimal when compared to those of other antineoplastic agents. Potential side effects include loss of appetite, mild diarrhea, and transient reversible increase of aspartate aminotransferase (AST). A minority of patients experienced cutaneous itching or puffing of the eyelids, and mild leukopenia occurred slowly in 34% of patients. One patient had thrombocytopenia without bleeding. There were no deaths associated with the use of arsenic sulfide.

non-Hodgkin's lymphoma = assay: Case study 4: non-Hodgkin's lymphoma patient; assay type: in vivo, human; conditions: case study 4, resistant to conventional anticancer treatment; since March, 1998
Text: as §1
A person diagnosed with non-Hodgkin's lymphoma in September 1996 was treated with a combination chemotherapy regimen and had cranial irradiation for meningeal lymphoma. They also had high dose chemo-radiotherapy for autologous stem cell transplant. The patient has several relapses including intracranial relapse and a large amount of lymphoma cells in peripheral blood with typical clinical and laboratory features of lymphoma/leukemia. […]

[6] = in vivo; cited from earlier work

arsenic trioxide
apoptosis (programmed cell death) (NB4 cells): induced apoptosis | patients with complete morphologic remission (refractory APL): 14 of 15

S1[As]2S[As]3S[As]2S[As]13 [arsenic disulfide]
time to complete remission level ([1]; case study 1): 36 days | blast cells and leukemic promyelocytes ([1]; case study 1, Aug. 28, 1997): less than 5% | hemoglobin and platelet levels ([1]; case study 1, FIG. 1): marked increase | blasts and white blood cells ([1]; case study 1, FIG. 2): dramatic decrease | clinical outcome ([1]; case study 1, newly diagnosed APL): complete remission | blasts and white blood cells ([1]; case study 2, FIG. 4): dramatic change | clinical outcome ([1]; case study 2, relapsed APL, treated 21 days): complete remission | patients living and leukemia free ([1]; of 48 APL patients treated, as of April, 1998, no ATRA or cytotoxic agents): 48 patients | patients attaining complete remission after one course of treatment ([1]; of ten newly diagnosed or relapsed patients): Eight | markers indicating residual leukemia cells after maintenance protocol ([1]; patients in complete remission before treatment with positive markers): persistently negative | patients alive and remaining in complete remission, leukemia free ([1]; ten newly diagnosed or relapsed patients): All ten | solubility in solvents [2]: soluble | carcinogenicity classification [3]: human carcinogens | blood and bone marrow pictures [4]: controlled | deaths associated with use ([5]; human, in vivo): no deaths | thrombocytopenia without bleeding ([5]; human, in vivo): One patient | mild leukopenia, incidence ([5]; occurred slowly): 34 % of patients | side effects compared to other antineoplastic agents ([5]; patients): minimal | clinical outcome (non-Hodgkin's lymphoma): in remission

S=[As]S[As]=S (stereo not drawn) [arsenic trisulfide]
tumorigenicity [6]: inconclusive | carcinogenicity classification [3]: human carcinogens

calcium arsenate [reference compound]
tumorigenicity [6]: tumorigenic
